Measurements from the supplement of paper PMC11061612.

Assays:
Gefitinib = compound: COc1cc2ncnc(Nc3ccc(F)c(Cl)c3)c2cc1OCCCN1CCOCC1 [Gefitinib]; settings: max 10 µM
In short: (§1)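 In 1536-well plates, cancer cell lines in 7.5 μl DMEM/F12 or RPMI with 10% FBS spent 24 hours at 37°C and 5% CO2 and were then dosed for 72 hours with final DMSO typically 0.2%. Viability was read by CellTiter-Glo 2.0 luminescence and scaled between blank-well and DMSO-well means. The single-agent IC50 was fitted from dose responses using a logistic curve in a non-linear mixed effects model, and that logistic curve had two parameters.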

Venetoclax = compound: CC1(C)CCC(CN2CCN(c3ccc(C(=O)NS(=O)(=O)c4ccc(NCC5CCOCC5)c([N+](=O)[O-])c4)c(Oc4cnc5[nH]ccc5c4)c3)CC2)=C(c2ccc(Cl)cc2)C1 [Venetoclax]; settings: max 1 µM
In short: as §1

AZD4320 = compound: CN(CC[C@H](CSC1=CC=CC=C1)NC2=C(C=C(C=C2)S(=O)(=O)NC(=O)C3=CC=C(C=C3)N4CCC(CC4)[C@H](C5=CC=CC=C5C6=CC=C(C=C6)Cl)O)S(=O)(=O)C(F)(F)F)CCO [AZD4320]; settings: max 1 µM
In short: as §1

Crizotinib = compound: C[C@@H](Oc1cc(-c2cnn(C3CCNCC3)c2)cnc1N)c1c(Cl)ccc(F)c1Cl [Crizotinib]; settings: max 10 µM
In short: as §1

Selumetinib = compound: Cn1cnc2c(F)c(Nc3ccc(Br)cc3Cl)c(C(=O)NOCCO)cc21 [Selumetinib]; settings: max 10 µM
In short: as §1

Doxorubicin = compound: COc1cccc2c1C(=O)c1c(O)c3c(c(O)c1C2=O)C[C@@](O)(C(=O)CO)C[C@@H]3O[C@H]1C[C@H](N)[C@H](O)[C@H](C)O1 [Doxorubicin]; settings: max 1 µM
In short: as §1

MK-2206 = compound: NC1(c2ccc(-c3nc4ccn5c(=O)[nH]nc5c4cc3-c3ccccc3)cc2)CCC1 [MK-2206]; settings: max 10 µM
In short: as §1

AZD0156 = compound: CN(C)CCCOc1ccc(-c2ccc3ncc4c(c3c2)n(C2CCOCC2)c(=O)n4C)cn1 [AZD0156]; settings: max 3 µM
In short: as §1

AZD7648 = compound: Cc1cc2ncnn2cc1Nc1ncc2c(n1)n(C1CCOCC1)c(=O)n2C [AZD7648]; settings: max 10 µM
In short: as §1

SRA737 = compound: N#Cc1cnc(Nc2cc(NC[C@H]3CNCCO3)c(C(F)(F)F)cn2)cn1 [SRA737]; settings: max 10 µM
In short: as §1

Lapatinib = compound: CS(=O)(=O)CCNCc1ccc(-c2ccc3ncnc(Nc4ccc(OCc5cccc(F)c5)c(Cl)c4)c3c2)o1 [Lapatinib]; settings: max 10 µM
In short: as §1

Paclitaxel = compound: CC(=O)O[C@H]1C(=O)[C@@]2(C)[C@H]([C@H](OC(=O)c3ccccc3)[C@]3(O)C[C@H](OC(=O)[C@H](O)[C@@H](NC(=O)c4ccccc4)c4ccccc4)C(C)=C1C3(C)C)[C@]1(OC(C)=O)CO[C@@H]1C[C@@H]2O [Paclitaxel]; settings: max 3 µM
In short: as §1

AZD8186 = compound: C[C@@H](Nc1cc(F)cc(F)c1)c1cc(C(=O)N(C)C)cc2c(=O)cc(N3CCOCC3)oc12 [AZD8186]; settings: max 10 µM
In short: as §1

Carboplatin = compound: C1CC(C1)(C(=O)[O-])C(=O)[O-].N.N.[Pt+2] [Carboplatin]; settings: max 10 µM
In short: as §1

Prexasertib = compound: COc1cccc(OCCCN)c1-c1cc(Nc2cnc(C#N)cn2)n[nH]1 [Prexasertib]; settings: max 1 µM
In short: as §1

Etoposide = compound: COc1cc([C@@H]2c3cc4c(cc3[C@@H](O[C@@H]3O[C@@H]5CO[C@@H](C)O[C@H]5[C@H](O)[C@H]3O)[C@H]3COC(=O)[C@H]23)OCO4)cc(OC)c1O [Etoposide]; settings: max 10 µM
In short: as §1

Gemcitabine = compound: Nc1ccn([C@@H]2O[C@H](CO)[C@@H](O)C2(F)F)c(=O)n1 [Gemcitabine]; settings: max 0.3 µM
In short: as §1

Olaparib = compound: O=C(c1cc(Cc2n[nH]c(=O)c3ccccc23)ccc1F)N1CCN(C(=O)C2CC2)CC1 [Olaparib]; settings: max 10 µM
In short: as §1

SG3199 = compound: CC1=CN2[C@@H](C1)C=NC3=CC(=C(C=C3C2=O)OC)OCCCCCOC4=C(C=C5C(=C4)N=C[C@@H]6CC(=CN6C5=O)C)OC [SG3199]; settings: max 0.001 µM
In short: as §1

5-Fluorouracil = compound: O=c1[nH]cc(F)c(=O)[nH]1 [5-Fluorouracil]; settings: max 20 µM
In short: as §1

AZD1775 = compound: C=CCn1c(=O)c2cnc(Nc3ccc(N4CCN(C)CC4)cc3)nc2n1-c1cccc(C(C)(C)O)n1 [AZD1775]; settings: max 3 µM
In short: as §1

Palbociclib = compound: CC(=O)c1c(C)c2cnc(Nc3ccc(N4CCNCC4)cn3)nc2n(C2CCCC2)c1=O [Palbociclib]; settings: max 10 µM
In short: as §1

Alisertib = compound: COc1cc(Nc2ncc3c(n2)-c2ccc(Cl)cc2C(c2c(F)cccc2OC)=NC3)ccc1C(=O)O [Alisertib]; settings: max 10 µM
In short: as §1

AZD5153 = compound: COc1nnc2ccc(N3CCC(c4ccc(OCCN5CCN(C)C(=O)[C@H]5C)cc4)CC3)nn12 [AZD5153]; settings: max 1 µM
In short: as §1

Taselisib = compound: Cc1nc(-c2cn3c(n2)-c2ccc(-c4cnn(C(C)(C)C(N)=O)c4)cc2OCC3)n(C(C)C)n1 [Taselisib]; settings: max 10 µM
In short: as §1

SN-38 = compound: CCc1c2c(nc3ccc(O)cc13)-c1cc3c(c(=O)n1C2)COC(=O)[C@]3(O)CC [SN-38]; settings: max 0.3 µM
In short: as §1

[1] = compound: O=C(Nc1ccc2[nH]nc(-c3ccncc3)c2c1)[C@@H]1CCN(CC(=O)N2CCN(c3ccc(-c4ncccn4)cc3)CC2)C1; settings: max 5 µM
In short: as §1

Dasatinib = compound: CC1=C(C(=CC=C1)Cl)NC(=O)C2=CN=C(S2)NC3=CC(=NC(=N3)C)N4CCN(CC4)CCO [Dasatinib]; settings: max 2 µM
In short: as §1

Trametinib = compound: CC(=O)Nc1cccc(-n2c(=O)n(C3CC3)c(=O)c3c(Nc4ccc(I)cc4F)n(C)c(=O)c(C)c32)c1 [Trametinib]; settings: max 1 µM
In short: as §1

Savolitinib = compound: C[C@@H](c1ccc2nccn2c1)n1nnc2ncc(-c3cnn(C)c3)nc21 [Savolitinib]; settings: max 1 µM
In short: as §1

AZD5363 = compound: C1CN(CCC1(C(=O)N[C@@H](CCO)C2=CC=C(C=C2)Cl)N)C3=NC=NC4=C3C=CN4 [AZD5363]; settings: max 10 µM
In short: as §1

AZD6738 = compound: C[C@@H]1COCCN1C2=NC(=NC(=C2)C3(CC3)[S@](=N)(=O)C)C4=C5C=CNC5=NC=C4 [AZD6738]; settings: max 10 µM
In short: as §1

AZD5991 = compound: Cc1c2c(nn1C)CSCc1cc(n(C)n1)CSc1cc(c3ccccc3c1)OCCCc1c(C(=O)O)n(C)c3c-2c(Cl)ccc13 [AZD5991]; settings: max 1 µM
In short: as §1

AZD2811 = compound: CCN(CCO)CCCOc1ccc2c(Nc3cc(CC(=O)Nc4cccc(F)c4)[nH]n3)ncnc2c1 [AZD2811]; settings: max 1 µM
In short: as §1

AZD1390 = compound: CC(C)n1c(=O)n(C)c2cnc3cc(F)c(-c4ccc(OCCCN5CCCCC5)nc4)cc3c21 [AZD1390]; settings: max 0.3 µM
In short: as §1

Cell Line	IC50, cell viability 72 h (Gefitinib)	IC50, cell viability 72 h (Venetoclax)	IC50, cell viability 72 h (AZD4320)	IC50, cell viability 72 h (Crizotinib)	IC50, cell viability 72 h (Selumetinib)	IC50, cell viability 72 h (Doxorubicin)	IC50, cell viability 72 h (MK-2206)	IC50, cell viability 72 h (AZD0156)	IC50, cell viability 72 h (AZD7648)	IC50, cell viability 72 h (SRA737)	IC50, cell viability 72 h (Lapatinib)	IC50, cell viability 72 h (Paclitaxel)	IC50, cell viability 72 h (AZD8186)	IC50, cell viability 72 h (Carboplatin)	IC50, cell viability 72 h (Prexasertib)	IC50, cell viability 72 h (Etoposide)	IC50, cell viability 72 h (Gemcitabine)	IC50, cell viability 72 h (Olaparib)	IC50, cell viability 72 h (SG3199)	IC50, cell viability 72 h (5-Fluorouracil)	IC50, cell viability 72 h (AZD1775)	IC50, cell viability 72 h (Palbociclib)	IC50, cell viability 72 h (Alisertib)	IC50, cell viability 72 h (AZD5153)	IC50, cell viability 72 h (Taselisib)	IC50, cell viability 72 h (SN-38)	IC50, cell viability 72 h [1]	IC50, cell viability 72 h (Dasatinib)	IC50, cell viability 72 h (Trametinib)	IC50, cell viability 72 h (Savolitinib)	IC50, cell viability 72 h (AZD5363)	IC50, cell viability 72 h (AZD6738)	IC50, cell viability 72 h (AZD5991)	IC50, cell viability 72 h (AZD2811)	IC50, cell viability 72 h (AZD1390)
SK-CO-1 (Colorectal Carcinoma)	> 10 µM	> 1 µM	0.7 µM	1.8 µM	1.12 µM	0.185 µM	> 10 µM	> 3 µM	> 10 µM	> 10 µM	> 10 µM	0.00407 µM	9.81 µM	> 10 µM	0.248 µM	2.14 µM	0.00948 µM	> 10 µM	> 0.001 µM	> 20 µM	1.24 µM	> 10 µM	3.13 µM	> 1 µM	1.22 µM	0.0059 µM	0.0856 µM	> 2 µM	0.00527 µM	> 1 µM	> 10 µM	6.58 µM	> 1 µM	0.383 µM	> 0.3 µM
SK-N-SH (Neuroblastoma)	> 10 µM	> 1 µM	0.794 µM	2.41 µM	> 10 µM	0.0669 µM	> 10 µM	> 3 µM	> 10 µM	> 10 µM	> 10 µM	0.0774 µM	> 10 µM	> 10 µM	0.0265 µM	0.667 µM	0.0585 µM	> 10 µM	> 0.001 µM	> 20 µM	1.44 µM	> 10 µM	0.0593 µM	> 1 µM	1.52 µM	0.00292 µM	> 5 µM	> 2 µM	> 1 µM	> 1 µM	> 10 µM	2.26 µM	> 1 µM	> 1 µM	> 0.3 µM
SKG-IIIa (Cervical Carcinoma)	> 10 µM	> 1 µM	> 1 µM	> 10 µM	> 10 µM	> 1 µM	> 10 µM	> 3 µM	> 10 µM	> 10 µM	> 10 µM	0.854 µM	> 10 µM	> 10 µM	> 1 µM	> 10 µM	> 0.3 µM	> 10 µM	> 0.001 µM	> 20 µM	> 3 µM	> 10 µM	> 10 µM	> 1 µM	> 10 µM	> 0.3 µM	> 5 µM	> 2 µM	> 1 µM	> 1 µM	> 10 µM	> 10 µM	> 1 µM	> 1 µM	> 0.3 µM
